These results are taken from patent US20080045489A1, “3,4-DI-SUBSTITUTED CYCLOBUTENE-1,2-DIONES AS CXC-CHEMOKINE RECEPTOR LIGANDS” (priority 2006, published 2008).

By inhibition is commonly meant the drop in the measured response relative to a control, in per cent.

The target of this test is T1, CXCR2 (Homo sapiens, UniProt P25025).
T1 construct: expressed in transfected cells; host or cells: Ba/F3 (Baf3) cells; membranes, clone designation [Hi70]
T1 sequence (P25025 1-360): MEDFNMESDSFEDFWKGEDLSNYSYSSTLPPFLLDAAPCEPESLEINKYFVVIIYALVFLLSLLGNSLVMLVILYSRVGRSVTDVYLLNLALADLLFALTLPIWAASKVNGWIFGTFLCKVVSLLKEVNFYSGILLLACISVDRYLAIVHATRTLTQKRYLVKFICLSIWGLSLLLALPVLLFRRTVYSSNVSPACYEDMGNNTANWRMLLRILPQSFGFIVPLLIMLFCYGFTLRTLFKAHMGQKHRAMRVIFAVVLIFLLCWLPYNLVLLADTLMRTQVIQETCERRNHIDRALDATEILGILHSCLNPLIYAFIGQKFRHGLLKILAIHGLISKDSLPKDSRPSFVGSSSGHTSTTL
Put plainly: [35S]GTPγS Binding Assay: inhibition of agonist (GROα) stimulated [35S]GTPγS exchange in membranes expressing CXCR2. It counts as biochemical. The following applies: 1 h; 3 nM compound; Baf3/hCXCR2 membranes; percent inhibition at highest chemokine (hGROα) concentration 500 nM; control (no compound) = 0%, standard = 100%; read-out: % Inhibition GTPyS. As to the method: [^35S]GTPγS Binding Assay:
This assay measures the inhibition of agonist (GROα) stimulated guanosine 5′-[γ-^35S]triphospate ([^35S]GTPγS, triethylammonium salt) exchange in membranes expressing CXCR2.
For each assay point, 2 μg of membrane (Baf3/hCXCR22 [Hi70]), 200 μg wheat germ agglutinin-coated SPA beads (WGA-SPA; Amersham, Arlington Heights, Ill.), 3 μM guanosine 5′-diphosphate (GDP) ±3 nM compound are pre-incubated for 3 hrs at room temperature (mixing by inversion) in SPA binding buffer (50 mM TRIS-HCL, 1 mM CaCl2, 5 mM MgCl2, 50 mM NaCl, 0.002% NaN3, 0.1% BSA, 10 μg/ml saponin, pH=7.6).
The bead, membrane, compound mixture is transferred to a 96-well Isoplate (Wallac, Gaithersburg, Md.) and pre-incubated for 60 min with concentrations of chemokine (hGROα) ranging from 500 nM to 1 nM with a no chemokine sample serving as a control. The GTPγS exchange reaction was initiated by the addition of 0.1 nM [^35S]GTPγS and the incubation for 60 min at room temperature. Assay is terminated by the addition of 10 μl “Stop Solution” (0.5M Na-EDTA; 10 μM GDP).
Membrane-bound [^35S]GTPγS was measured using a 1450 Microbeta Trilux counter (Wallac, Gaithersburg, Md.). Data is calculated as percent inhibition at the highest chemokine concentration (500 nM). The control (No compound addition), which is set to 0%, versus the % inhibition of the standard, which is set at 100%. The standard used is: [drawing 19]
For orientation: GTPγS is a poorly hydrolysed GTP analogue; its binding reports G protein activation.
Consider `CC[C@@H](Nc1c(Nc2cccc(C(=O)N(C)C)c2O)c(=O)c1=O)c1cc(Cl)c(C)o1` [Compound 4, 3-[[2-[[1(R)-(4-CHLORO-5-METHYL-2- FURANYL)PROPYL]AMINO]-3,4-DIOXO- 1-CYCLOBUTEN-1-YL]AMINO]-2- HYDROXY-N,N-DIMETHYLBENZAMIDE], for which the inhibition at 0.003 µM is 120%.
The figure for `CC[C@@H](Nc1c(Nc2cccc(C(=O)N3CCOCC3)c2O)c(=O)c1=O)c1cc(C2CC2)c(C)o1` [Compound 14, 4-[3-[[2-[[1(R)-(4-CYCLOPROPYL-5- METHYL-2-FURANYL)PROPYL]AMINO]- 3,4-DIOXO-1-CYCLOBUTEN-1-YL]- AMINO]-2-HYDROXYBENZOYL]- MORPHOLINE] is 103%; for `CC[C@@H](Nc1c(Nc2cccc(C(=O)N(C)C)c2O)c(=O)c1=O)c1cc(C2CCCC2)c(C)o1` [Compound 11, 3-[[2-[[1(R)-(4-CYCLOPENTYL-5- METHYL-2-FURANYL)PROPYL]AMINO]- 3,4-DIOXO-1-CYCLOBUTEN-1-YL]- AMINO]-2-HYDROXY-N,N-DIMETHYL- BENZAMIDE] it is 109%; for `CC[C@@H](Nc1c(Nc2cccc(C(=O)N3CCC3)c2O)c(=O)c1=O)c1cc(C(C)C)c(C)o1` [Compound 17, 1-[2-HYDROXY-3-[[2-[[1(R)-[5-METHYL- 4-(1-METHYLETHYL)-2-FURANYL]- PROPYL]AMINO]-3,4-DIOXO-1- CYCLOBUTEN-1-YL]AMINO]- BENZOYL]AZETIDINE] it is 100%.
The figure for `CC[C@@H](Nc1c(Nc2cccc(C(=O)N3CCCC3)c2O)c(=O)c1=O)c1cc(Br)c(C)o1` [Compound 9, 1-[3-[[2-[[1(R)-(4-BROMO-5-METHYL-2- FURANYL)PROPYL]AMINO]-3,4-DIOXO- 1-CYCLOBUTEN-1-YL]AMINO]-2- HYDROXYBENZOYL]PYRROLIDINE] is 110%; for `CCc1oc([C@@H](CC)Nc2c(Nc3cccc(C(=O)N(C)C)c3O)c(=O)c2=O)cc1Br` [Compound 18, 3-[[2-[[1(R)-(4-BROMO-5-ETHYL-2- FURANYL)PROPYL]AMINO]-3,4-DIOXO- 1-CYCLOBUTEN-1-YL]AMINO]-2- HYDROXY-N,N-DIMETHYLBENZAMIDE] it is 99%.
For the molecule `CC[C@@H](Nc1c(Nc2cccc(C(=O)N3CCOCC3)c2O)c(=O)c1=O)c1cc(Br)c(C)o1` [Compound 7, 4-[3-[[2-[[1(R)-(4-BROMO-5-METHYL-2- FURANYL)PROPYL]AMINO]-3,4-DIOXO- 1-CYCLOBUTEN-1-YL]AMINO]-2- HYDROXYBENZOYL]MORPHOLINE], the inhibition at 0.003 µM worked out at 114%.
The figure for `CC[C@@H](Nc1c(Nc2cccc(C(=O)N(C)C)c2O)c(=O)c1=O)c1cc(Br)c(C)o1` [Compound 3, 3-[[2-[[1(R)-(4-BROMO-5-METHYL-2- FURANYL)PROPYL]AMINO]-3,4-DIOXO- 1-CYCLOBUTEN-1-YL]AMINO]-2- HYDROXY-N,N-DIMETHYLBENZAMIDE] is 122%; for `CC[C@@H](Nc1c(Nc2cccc(C(=O)N3CCC3)c2O)c(=O)c1=O)c1cc(C2CC2)c(C)o1` [Compound 6, 1-[3-[[2-[[1(R)-(4-CYCLOPROPYL-5- METHYL-2-FURANYL)PROPYL]AMINO]- 3,4-DIOXO-1-CYCLOBUTEN-1- YL]AMINO]-2-HYDROXYBENZOYL]- AZETIDINE] it is 115%.
Consider `CC[C@@H](Nc1c(Nc2cccc(C(=O)N3CCCC3)c2O)c(=O)c1=O)c1cc(C(C)C)c(C)o1` [Compound 2, 1-[2-HYDROXY-3-[[2-[[1(R)-[5-METHYL- 4-(1-METHYLETHYL)-2-FURANLY]- PROPYL]AMINO]-3,4-DIOXO-1- CYCLOBUTEN-1-YL]AMINO]-BENZOYL]PYRROLIDINE], for which the inhibition at 0.003 µM turned out to be 132%.
As for `CC[C@@H](Nc1c(Nc2cccc(C(=O)N(C)C)c2O)c(=O)c1=O)c1cc(C(C)C)c(C)o1` [Compound 8, 2-HYDROXY-N,N-DIMETHYL-3-[[2- [[1(R)-[5-METHYL-4-(1-METHYLETHYL)- 2-FURANYL]PROPYL]AMINO]-3,4- DIOXO-1-CYCLOBUTEN-1-YL]AMINO]- BENZAMIDE], the figure is 112%; as for `CC[C@@H](Nc1c(Nc2cccc(C(=O)N3CC[C@H](O)C3)c2O)c(=O)c1=O)c1cc(Br)c(C)o1` [Compound 5, 1-[3-[[2-[[1(R)-(4-BROMO-5-METHYL-2- FURANYL)PROPYL]AMINO]-3,4-DIOXO- 1-CYCLOBUTEN-1-YL]AMINO]-2- HYDROXYBENZOYL]-3(S)- PYRROLIDINOL], 119%; as for `CC[C@@H](Nc1c(Nc2cccc(C(=O)N3CC[C@@H](O)C3)c2O)c(=O)c1=O)c1cc(Br)c(C)o1` [Compound 16, 1-[3-[[2-[[1(R)-(4-BROMO-5-METHYL-2- FURANYL)PROPYL]AMINO]-3,4-DIOXO- 1-CYCLOBUTEN-1-YL]AMINO]-2- HYDROXYBENZOYL]-3(R)- PYRROLIDINOL], 101%.
For the molecule `CC[C@@H](Nc1c(Nc2cccc(C(=O)N(C)C)c2O)c(=O)c1=O)c1cc(C2CC2)c(C)o1` [Compound 12, 3-[[2-[[1(R)-(4-CYCLOPROPYL-5- METHYL-2-FURANYL)PROPYL]AMINO]- 3,4-DIOXO-1-CYCLOBUTEN-1-YL]- AMINO]-2-HYDROXY-N,N-DIMETHYL- BENZAMIDE], the inhibition at 0.003 µM amounted to 107%.
The figure for `CC[C@@H](Nc1c(Nc2cccc(C(=O)N(C)C)c2O)c(=O)c1=O)c1cc(C(C)C)c(C2CC2)o1` [Compound 13, 3-[[2-[[1(R)-[5-CYCLOPROPYL-4-(1- METHYLETHYL)-2-FURANYL]PROPYL]- AMINO]-3,4-DIOXO-1-CYCLOBUTEN-1- YL]AMINO]-2-HYDROXY-N,N- DIMETHYLBENZAMIDE] is 105%; for `CC[C@@H](Nc1c(Nc2cccc(C(=O)N3CCOCC3)c2O)c(=O)c1=O)c1cc(C(C)C)c(C)o1` [Compound 1, 4-[2-HYDROXY-3-[[2-[[1(R)-[5-METHYL- 4-(1-METHYLETHYL)-2-FURANYL]- PROPYL]AMINO]-3,4-DIOXO-1- CYCLOBUTEN-1-YL]AMINO]BENZOYL]- MORPHOLINE] it is 137%; for `CCc1oc([C@@H](CC)Nc2c(Nc3cccc(C(=O)N4CCC4)c3O)c(=O)c2=O)cc1Br` [Compound 15, 1-[3-[[2-[[1(R)-(4-BROMO-5-ETHYL-2- FURANYL)PROPYL]AMINO]-3,4-DIOXO- 1-CYCLOBUTEN-1-YL]AMINO]-2- HYDROXYBENZOYL]AZETIDINE] it is 103%.
For the molecule `CC[C@@H](Nc1c(Nc2cccc(C(=O)N(C)C)c2O)c(=O)c1=O)c1cc(C(C)C)c(Br)o1` [Compound 10, 3-[[2-[[1(R)-[5-BROMO-4-(1-METHYL- ETHYL)-2-FURANYL]PROPYL]AMINO]- 3,4,-DIOXO-1-CYCLOBUTEN-1-YL]- AMINO]-2-HYDROXY-N,N-DIMETHYL- BENZAMIDE], the inhibition at 0.003 µM was determined as 109%.
